# Columns and labels:
# Format in all cases: cell-based
# E. coli BL21 = experiment: MIC against Gram-negative bacteria: E. coli BL21; conditions: for MIC against E. coli BL21 / MIC: E. coli BL21
# How it was run: (§1)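 Antibacterial activity of purified human EGF domain proteins: two-fold concentration series, triplicate wells, LB broth, 5×10^5 CFU/mL bacteria, 37° C shaking incubation. The lowest concentration without growth defines the MIC.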
# E. coli DH5α = experiment: Antibacterial activity: MIC and growth curve against E. coli DH5α in 96-well plate; conditions: minimal inhibitory concentration against E. coli DH5α; 96-well plate, 5×10^5 CFU/mL, 37° C., judged after 8 h
# How it was run: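 Log-phase bacteria (OD600 ~0.5) resuspended in LB at 5×10^5 CFU/mL, exposed to recombinant protein at 50, 25, 12.5 μg/mL final in triplicate, 37 °C shaking at 175 rpm. OD600 read every 30 min; MIC is lowest concentration showing no growth.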
# Proteus vulgaris = experiment: MIC against Gram-negative bacteria: Proteus vulgaris; conditions: for MIC against P. vulgaris: Proteus vulgaris; for MIC: P. vulgaris
# How it was run: as §1
# Enterobacter cloacae = experiment: MIC against Gram-negative bacteria: Enterobacter cloacae; conditions: for MIC against E. cloacae: Enterobacter cloacae; for MIC: E. cloacae
# How it was run: as §1
# Aeromonas hydrophila = experiment: MIC against Gram-negative bacteria: Aeromonas hydrophila; conditions: for MIC against A. hydrophila: Aeromonas hydrophila; for MIC: A. hydrophila
# How it was run: as §1
# Proteus mirabilis = experiment: MIC against Gram-negative bacteria: Proteus mirabilis; conditions: for MIC against P. mirabilis: Proteus mirabilis; for MIC: P. mirabilis
# How it was run: as §1
# Moraxella catarrhalis = experiment: MIC against Gram-negative bacteria: Moraxella catarrhalis; conditions: for MIC against M. catarrhalis: Moraxella catarrhalis; for MIC: M. catarrhalis
# How it was run: as §1
# Citrobacter diversus = experiment: MIC against Gram-negative bacteria: Citrobacter diversus; conditions: for MIC against C. diversus: Citrobacter diversus; for MIC: C. diversus
# How it was run: as §1
# Pseudomonas aeruginosa = experiment: MIC against Gram-negative bacteria: Pseudomonas aeruginosa; conditions: for MIC against P. aeruginosa: Pseudomonas aeruginosa; for MIC: P. aeruginosa
# How it was run: as §1
# Klebsiella pneumonia = experiment: MIC against Gram-negative bacteria: Klebsiella pneumonia; conditions: for MIC against K. pneumonia: Klebsiella pneumonia; for MIC: K. pneumonia
# How it was run: as §1
# Serratia marcescens = experiment: MIC against Gram-negative bacteria: Serratia marcescens; conditions: for MIC against S. marcescens: Serratia marcescens; for MIC: S. marcescens
# How it was run: as §1
# [1] = 96-well plate, 5×10^5 CFU/mL, 37° C., 10 h
# [2] = 5×10^5 CFU/mL, 10 h cultivation at 37° C.
# [3] = 10 h cultivation at 37° C., 5×10^5 CFU/mL
substance,measurement,setting,value
PRT1310 (EINSCLIHHGGCHIHAECIPTGPQQVSCSCREGYSGDGIRTCE; listed as Homo sapiens),MIC against E. coli BL21,E. coli BL21; [1],50 µg/mL
same,MIC,E. coli DH5α,12.5 µg/mL
same,MIC against P. vulgaris,Proteus vulgaris; [1],12.5 µg/mL
same,MIC against E. cloacae,Enterobacter cloacae; [1],50 µg/mL
same,MIC against A. hydrophila,Aeromonas hydrophila; [1],12.5 µg/mL
same,MIC against P. mirabilis,Proteus mirabilis; [1],25 µg/mL
same,MIC against M. catarrhalis,Moraxella catarrhalis; [1],50 µg/mL
same,MIC against C. diversus,Citrobacter diversus; [1],25 µg/mL
same,MIC against P. aeruginosa,Pseudomonas aeruginosa; [1],12.5 µg/mL
same,MIC against K. pneumonia,Klebsiella pneumonia; [1],25 µg/mL
same,MIC against S. marcescens,Serratia marcescens; [1],25 µg/mL
PRT644 (DINECQLQGVCPNGECLNTMGSYRCTCKIGFGPDPTFS; listed as Homo sapiens),MIC E. coli BL21,E. coli BL21; [1],12.5 µg/mL
same,MIC,E. coli DH5α,25 µg/mL
same,MIC P. vulgaris,Proteus vulgaris; [1],100 µg/mL
same,MIC E. cloacae,Enterobacter cloacae; [1],25 µg/mL
same,MIC A. hydrophila,Aeromonas hydrophila; [1],12.5 µg/mL
same,MIC P. mirabilis,Proteus mirabilis; [1],25 µg/mL
same,MIC M. catarrhalis,Moraxella catarrhalis; [1],50 µg/mL
same,MIC C. diversus,Citrobacter diversus; [1],25 µg/mL
same,MIC P. aeruginosa,Pseudomonas aeruginosa; [1],25 µg/mL
same,MIC K. pneumonia,Klebsiella pneumonia; [1],50 µg/mL
same,MIC S. marcescens,Serratia marcescens; [1],25 µg/mL
PRT1242 (WGPECQQQCECVRGRCSAASGECTCPPGFRGARCE; listed as Homo sapiens),MIC against E. coli BL21,E. coli BL21; [1],50 µg/mL
same,MIC,E. coli DH5α,25 µg/mL
same,MIC against P. vulgaris,Proteus vulgaris; [1],25 µg/mL
same,MIC against E. cloacae,Enterobacter cloacae; [1],25 µg/mL
same,MIC against A. hydrophila,Aeromonas hydrophila; [1],25 µg/mL
same,MIC against P. mirabilis,Proteus mirabilis; [1],12.5 µg/mL
same,MIC against M. catarrhalis,Moraxella catarrhalis; [1],25 µg/mL
same,MIC against C. diversus,Citrobacter diversus; [1],50 µg/mL
same,MIC against P. aeruginosa,Pseudomonas aeruginosa; [1],25 µg/mL
same,MIC against K. pneumonia,Klebsiella pneumonia; [1],12.5 µg/mL
same,MIC against S. marcescens,Serratia marcescens; [1],50 µg/mL
PRT1430 (DINECAHADPCFPGSSCINTMPGFHCEACPRGYKGTQVS; listed as Homo sapiens),MIC against E. coli BL21,E. coli BL21; [2],12.5 µg/mL
same,MIC,E. coli DH5α,25 µg/mL
same,MIC against P. vulgaris,Proteus vulgaris; [2],12.5 µg/mL
same,MIC against E. cloacae,Enterobacter cloacae; [2],25 µg/mL
same,MIC against A. hydrophila,Aeromonas hydrophila; [2],12.5 µg/mL
same,MIC against P. mirabilis,Proteus mirabilis; [2],25 µg/mL
same,MIC against M. catarrhalis,Moraxella catarrhalis; [2],12.5 µg/mL
same,MIC against C. diversus,Citrobacter diversus; [2],25 µg/mL
same,MIC against P. aeruginosa,Pseudomonas aeruginosa; [2],25 µg/mL
same,MIC against K. pneumonia,Klebsiella pneumonia; [2],12.5 µg/mL
same,MIC against S. marcescens,Serratia marcescens; [2],25 µg/mL
PRT1028 (DENECATGFHRCGPNSVCINLPGSYRCECRSGYEFADDRHTCI; listed as Homo sapiens),MIC,E. coli BL21; 10 h cultivation at 37° C.,50 µg/mL
same,MIC,E. coli DH5α,12.5 µg/mL
same,MIC,Proteus vulgaris; 10 h cultivation at 37° C.,25 µg/mL
same,MIC,Enterobacter cloacae; 10 h cultivation at 37° C.,25 µg/mL
same,MIC,Aeromonas hydrophila; 10 h cultivation at 37° C.,25 µg/mL
same,MIC,Proteus mirabilis; 10 h cultivation at 37° C.,50 µg/mL
same,MIC,Moraxella catarrhalis; 10 h cultivation at 37° C.,25 µg/mL
same,MIC,Citrobacter diversus; 10 h cultivation at 37° C.,12.5 µg/mL
same,MIC,Pseudomonas aeruginosa; 10 h cultivation at 37° C.,25 µg/mL
same,MIC,Klebsiella pneumonia; 10 h cultivation at 37° C.,50 µg/mL
same,MIC,Serratia marcescens; 10 h cultivation at 37° C.,50 µg/mL
PRT317 (VTDYCQLVRYLCQNGRCIPTPGSCRCECNKGFQLDLRGECI; listed as Homo sapiens),MIC,E. coli BL21; [3],50 µg/mL
same,MIC,E. coli DH5α,12.5 µg/mL
same,MIC,Proteus vulgaris; [3],12.5 µg/mL
same,MIC,Enterobacter cloacae; [3],12.5 µg/mL
same,MIC,Aeromonas hydrophila; [3],25 µg/mL
same,MIC,Proteus mirabilis; [3],12.5 µg/mL
same,MIC,Moraxella catarrhalis; [3],25 µg/mL
same,MIC,Citrobacter diversus; [3],12.5 µg/mL
same,MIC,Pseudomonas aeruginosa; [3],12.5 µg/mL
same,MIC,Klebsiella pneumonia; [3],50 µg/mL
same,MIC,Serratia marcescens; [3],12.5 µg/mL

# From patent US9833497B2, “Human originated EGF domain proteins and use of the same” (CHENGDU SOURCEBIO LIMITED-LIABILITY COMPANY, priority 2013, dated 2017)
